Results as given in patent EP4667467A1, “PROTAC DEGRADERS OF MLLT1 AND/OR MLLT3” (Dark Blue Therapeutics Ltd, priority 2024, dated 2025).

Molecular target: T1, MLLT1 (Homo sapiens, UniProt Q03111)
T1 construct: endogenous in cells; host or cells: MV4-11 (ATCC CRL-9591)
T1 sequence (Q03111 1-559): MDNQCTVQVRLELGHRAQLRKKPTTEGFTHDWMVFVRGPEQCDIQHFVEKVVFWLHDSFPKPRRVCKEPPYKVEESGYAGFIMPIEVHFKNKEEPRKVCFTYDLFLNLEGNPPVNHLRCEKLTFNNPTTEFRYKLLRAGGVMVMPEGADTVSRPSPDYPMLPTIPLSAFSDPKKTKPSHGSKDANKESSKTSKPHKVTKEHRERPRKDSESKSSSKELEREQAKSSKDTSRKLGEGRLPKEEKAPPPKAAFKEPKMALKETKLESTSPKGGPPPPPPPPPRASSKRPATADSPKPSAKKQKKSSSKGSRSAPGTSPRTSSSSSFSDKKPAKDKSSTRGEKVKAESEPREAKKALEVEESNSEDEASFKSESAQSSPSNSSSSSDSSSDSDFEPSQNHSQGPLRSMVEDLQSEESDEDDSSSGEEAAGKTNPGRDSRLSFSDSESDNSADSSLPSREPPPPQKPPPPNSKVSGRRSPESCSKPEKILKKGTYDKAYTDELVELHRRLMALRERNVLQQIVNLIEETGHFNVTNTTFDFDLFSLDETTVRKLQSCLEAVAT
Experiment: MLLT1 Degradation Assay (JESS automated chemiluminescent detection, MV4-11 cells)
Type: cell-based
Details: 24h, with respect to DMSO control; for MLLT1 % Degradation @ 0.01 µM: 0.01 µM (10 nM) test compound; for MLLT1 % Degradation @ 0.1 µM: 0.1 µM (100 nM) test compound; for MLLT 1 % Degradation @ 1 µM: 1 µM (1000 nM) test compound
How it was run: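 MV4-11 cells were treated for 24 h at 37 °C, 5% CO2 with compound at 1000, 100 and 10 nM (0.1% DMSO). MLLT1 was quantified by automated capillary chemiluminescent immunodetection (JESS). Band peak areas were expressed as % degradation relative to DMSO control.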

Row | Structure (SMILES) | MLLT1 % Degradation @ 0.01 µM | MLLT1 % Degradation @ 0.1 µM | MLLT 1 % Degradation @ 1 µM
1 | CN1CCC[C@H]1c1cc2cnc(NC(=O)c3ccc(CCCNc4cccc5c4C(=O)N(C4CCC(=O)NC4=O)C5=O)cc3)cc2[nH]1 (stereo partly drawn) [Example 37, 4-(3-{[2-(2,6-dioxopiperidin-3-yl)-1,3-dioxoisoindol-4-yl]amino}propyl)-N-{2-[(2S)-1-methylpyrrolidin-2-yl]-1H-pyrrolo[3,2-c]pyridin-6-yl}benzamide] | B (Category B: 50% ≤ B < 75% degradation) | A (Category A: A ≥ 75% degradation) | A (Category A: A ≥ 75% degradation)
2 | CN1CCC[C@@H]1c1cc2cnc(NC(=O)c3cnn(CCCC4CCN(c5cccc6c5C(=O)N(C5CCC(=O)NC5=O)C6=O)CC4)c3)cc2[nH]1 (stereo partly drawn) [Example 38, 1-(3-{1-[2-(2,6-dioxopiperidin-3-yl)-1,3-dioxoisoindol-4-yl]piperidin-4-yl}propyl)-N-{2-[(2R)-1-methylpyrrolidin-2-yl]-1H-pyrrolo[3,2-c]pyridin-6-yl}pyrazole-4-carboxamide] | D (Category D: D < 25% degradation) | D (Category D: D < 25% degradation) | C (Category C: 25% ≤ C < 50% degradation)
3 | CN1CCC[C@@H]1c1cc2cnc(NC(=O)COCCCCNc3cccc4c3C(=O)N(C3CCC(=O)NC3=O)C4=O)cc2[nH]1 (stereo partly drawn) [Example 40, 2-(4-((2-(2,6-dioxopiperidin-3-yl)-1,3-dioxoisoindolin-4-yl)amino)butoxy)-N-(2-((R)-1-methylpyrrolidin-2-yl)-1H-pyrrolo[3,2-c]pyridin-6-yl)acetamide] | – | C (Category C: 25% ≤ C < 50% degradation) | B (Category B: 50% ≤ B < 75% degradation)
4 | CN1CCC[C@@H]1c1cc2cnc(NC(=O)CCCC3CCN(c4cccc5c4C(=O)N(C4CCC(=O)NC4=O)C5=O)CC3)cc2[nH]1 (stereo partly drawn) [Example 41, 4-(1-(2-(2,6-dioxopiperidin-3-yl)-1,3-dioxoisoindolin-4-yl)piperidin-4-yl)-N-(2-((R)-1-methylpyrrolidin-2-yl)-1H-pyrrolo[3,2-c]pyridin-6-yl)butanamide] | B (Category B: 50% ≤ B < 75% degradation) | B (Category B: 50% ≤ B < 75% degradation) | A (Category A: A ≥ 75% degradation)
5 | CN1CCC[C@@H]1c1cc2cnc(NC(=O)CCCCC3CCN(c4cccc5c4C(=O)N(C4CCC(=O)NC4=O)C5=O)CC3)cc2[nH]1 (stereo partly drawn) [Example 42, 5-(1-(2-(2,6-Dioxopiperidin-3-yl)-1,3-dioxoisoindolin-4-yl)piperidin-4-yl)-N-(2-((R)-1-methylpyrrolidin-2-yl)-1H-pyrrolo[3,2-c]pyridin-6-yl)pentanamide] | – | B (Category B: 50% ≤ B < 75% degradation) | B (Category B: 50% ≤ B < 75% degradation)
6 | CN1CCC[C@@H]1c1cc2cnc(NC(=O)CCCCCC3CCN(c4cccc5c4C(=O)N(C4CCC(=O)NC4=O)C5=O)CC3)cc2[nH]1 (stereo partly drawn) [Example 43, 6-(1-(2-(2,6-dioxopiperidin-3-yl)-1,3-dioxoisoindolin-4-yl)piperidin-4-yl)-N-(2-((R)-1-methylpyrrolidin-2-yl)-1H-pyrrolo[3,2-c]pyridin-6-yl)hexanamide] | – | A (Category A: A ≥ 75% degradation) | B (Category B: 50% ≤ B < 75% degradation)
7 | CN1CCC[C@@H]1c1cc2cnc(NC(=O)CCCC3CCCN(c4cccc5c4C(=O)N(C4CCC(=O)NC4=O)C5=O)C3)cc2[nH]1 (stereo partly drawn) [Example 44, 4-(1-(2-(2,6-dioxopiperidin-3-yl)-1,3-dioxoisoindolin-4-yl)piperidin-3-yl)-N-(2-((R)-1-methylpyrrolidin-2-yl)-1H-pyrrolo[3,2-c]pyridin-6-yl)butanamide] | – | C (Category C: 25% ≤ C < 50% degradation) | C (Category C: 25% ≤ C < 50% degradation)
8 | CN1CCC[C@@H]1c1cc2cnc(NC(=O)c3cccc(CCCNc4cccc5c4C(=O)N(C4CCC(=O)NC4=O)C5=O)c3)cc2[nH]1 (stereo partly drawn) [Example 45, 3-(3-((2-(2,6-dioxopiperidin-3-yl)-1,3-dioxoisoindolin-4-yl)amino)propyl)-N-(2-((R)-1-methylpyrrolidin-2-yl)-1H-pyrrolo[3,2-c]pyridin-6-yl)benzamide] | A (Category A: A ≥ 75% degradation) | A (Category A: A ≥ 75% degradation) | A (Category A: A ≥ 75% degradation)
9 | CN1CCCC1c1cc2cnc(NC(=O)c3ccc(OCC#Cc4cccc5c4CN(C4CCC(=O)NC4=O)C5=O)cn3)cc2[nH]1 (centres unmarked) [Example 50, 5-[3-[2-(2,6-dioxo-3-piperidyl)-1-oxo-isoindolin-4-yl]prop-2-ynoxy]-N-[2-(1-methylpyrrolidin-2-yl)-1H-pyrrolo[3,2-c]pyridin-6-yl]pyridine-2-carboxamide] | B (Category B: 50% ≤ B < 75% degradation) | B (Category B: 50% ≤ B < 75% degradation) | B (Category B: 50% ≤ B < 75% degradation)

Second part, led by results:

Row | MLLT1 % Degradation @ 0.01 µM | MLLT1 % Degradation @ 0.1 µM | Structure (SMILES) | MLLT 1 % Degradation @ 1 µM
10 | D (Category D: D < 25% degradation) | D (Category D: D < 25% degradation) | CN1CCC[C@@H]1c1cc2cnc(NC(=O)c3ccc(CCC#Cc4cccc5c4CN(C4CCC(=O)NC4=O)C5=O)cn3)cc2[nH]1 (stereo partly drawn) [Example 49, 5-(4-(2-(2,6-dioxopiperidin-3-yl)-1-oxoisoindolin-4-yl)but-3-yn-1-yl)-N-(2-((R)-1-methylpyrrolidin-2-yl)-1H-pyrrolo[3,2-c]pyridin-6-yl)picolinamide] | C (Category C: 25% ≤ C < 50% degradation)
11 | A (Category A: A ≥ 75% degradation) | A (Category A: A ≥ 75% degradation) | CN1CCC[C@@H]1c1cc2cnc(NC(=O)c3ccc(OCC#Cc4cccc5c4CN(C4CCC(=O)NC4=O)C5=O)cc3)cc2[nH]1 (stereo partly drawn) [Example 51, 4-((3-(2-(2,6-dioxopiperidin-3-yl)-1-oxoisoindolin-4-yl)prop-2-yn-1-yl)oxy)-N-(2-((R)-1-methylpyrrolidin-2-yl)-1H-pyrrolo[3,2-c]pyridin-6-yl)benzamide] | A (Category A: A ≥ 75% degradation)
12 | A (Category A: A ≥ 75% degradation) | A (Category A: A ≥ 75% degradation) | CN1CCC[C@@H]1c1cc2cnc(NC(=O)c3ccc(CCC#Cc4cccc5c4CN(C4CCC(=O)NC4=O)C5=O)cc3)cc2[nH]1 (stereo partly drawn) [Example 52, 4-(4-(2-(2,6-dioxopiperidin-3-yl)-1-oxoisoindolin-4-yl)but-3-yn-1-yl)-N-(2-((R)-1-methylpyrrolidin-2-yl)-1H-pyrrolo[3,2-c]pyridin-6-yl)benzamide] | B (Category B: 50% ≤ B < 75% degradation)
13 | A (Category A: A ≥ 75% degradation) | A (Category A: A ≥ 75% degradation) | CN1CCC[C@@H]1c1cc2cnc(NC(=O)c3ccc(CCC#Cc4cccc5c4n(C)c(=O)n5C4CCC(=O)NC4=O)cc3)cc2[nH]1 (stereo partly drawn) [Example 53, 4-(4-(1-(2,6-dioxopiperidin-3-yl)-3-methyl-2-oxo-2,3-dihydro-1H-benzo[d]imidazol-4-yl)but-3-yn-1-yl)-N-(2-((R)-1-methylpyrrolidin-2-yl)-1H-pyrrolo[3,2-c]pyridin-6-yl)benzamide] | B (Category B: 50% ≤ B < 75% degradation)
14 | A (Category A: A ≥ 75% degradation) | A (Category A: A ≥ 75% degradation) | CN1CCC[C@@H]1c1cc2cnc(NC(=O)c3ccc(CCC#Cc4cccc5c4CN(C4CCC(=O)NC4=O)C5=O)cc3F)cc2[nH]1 (stereo partly drawn) [Example 54, 4-(4-(2-(2,6-dioxopiperidin-3-yl)-1-oxoisoindolin-4-yl)but-3-yn-1-yl)-2-fluoro-N-(2-((R)-1-methylpyrrolidin-2-yl)-1H-pyrrolo [3,2-c]pyridin-6-yl) benzamide] | B (Category B: 50% ≤ B < 75% degradation)
15 | A (Category A: A ≥ 75% degradation) | A (Category A: A ≥ 75% degradation) | CN1CCC[C@@H]1c1cc2cnc(NC(=O)c3ccc(CCCC#Cc4cccc5c4CN(C4CCC(=O)NC4=O)C5=O)cc3)cc2[nH]1 (stereo partly drawn) [Example 55, 4-(5-(2-(2,6-dioxopiperidin-3-yl)-1-oxoisoindolin-4-yl)pent-4-yn-1-yl)-N-(2-((R)-1-methylpyrrolidin-2-yl)-1H-pyrrolo[3,2-c]pyridin-6-yl)benzamide] | A (Category A: A ≥ 75% degradation)
16 | A (Category A: A ≥ 75% degradation) | A (Category A: A ≥ 75% degradation) | CN1CCC[C@@H]1c1cc2cnc(NC(=O)c3ccc(OCCCC#Cc4cccc5c4CN(C4CCC(=O)NC4=O)C5=O)cc3)cc2[nH]1 (stereo partly drawn) [Example 56, 4-((5-(2-(2,6-dioxopiperidin-3-yl)-1-oxoisoindolin-4-yl)pent-4-yn-1-yl)oxy)-N-(2-((R)-1-methylpyrrolidin-2-yl)-1H-pyrrolo[3,2-c]pyridin-6-yl)benzamide] | A (Category A: A ≥ 75% degradation)
